# Results reported in BindingDB's records for doi:10.7270/Q2M61HQ8 (Southern Research Specialized Biocontainment Screening …, 2010).
# Target: Large T antigen (Simian virus 40, UniProt P03070)
# Assay: TAg ATPase/helicase activity blockers – biochemical (AID 1903)
# Chain of Large T antigen (P03070 whole entry): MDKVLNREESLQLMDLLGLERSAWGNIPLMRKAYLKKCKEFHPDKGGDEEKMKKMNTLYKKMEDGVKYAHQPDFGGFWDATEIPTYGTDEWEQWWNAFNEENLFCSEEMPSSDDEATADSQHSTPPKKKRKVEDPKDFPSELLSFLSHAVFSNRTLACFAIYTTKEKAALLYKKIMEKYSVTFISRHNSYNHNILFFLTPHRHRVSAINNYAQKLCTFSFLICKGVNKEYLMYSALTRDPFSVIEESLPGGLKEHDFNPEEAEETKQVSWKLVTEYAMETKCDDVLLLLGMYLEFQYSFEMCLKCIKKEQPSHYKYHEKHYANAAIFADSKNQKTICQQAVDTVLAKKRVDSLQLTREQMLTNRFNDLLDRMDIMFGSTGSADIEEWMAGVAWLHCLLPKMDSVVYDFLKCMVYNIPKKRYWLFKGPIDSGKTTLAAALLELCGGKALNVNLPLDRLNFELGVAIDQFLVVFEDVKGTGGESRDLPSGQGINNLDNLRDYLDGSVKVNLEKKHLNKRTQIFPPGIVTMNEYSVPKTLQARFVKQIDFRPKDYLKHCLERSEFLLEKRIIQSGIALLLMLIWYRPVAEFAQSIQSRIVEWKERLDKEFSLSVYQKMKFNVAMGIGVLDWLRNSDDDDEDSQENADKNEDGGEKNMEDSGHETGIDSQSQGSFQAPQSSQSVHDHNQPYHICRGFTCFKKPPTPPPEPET
row,IC50,Structure (SMILES)
1,33.8 µM,Cc1ccc(Nc2oc3cc(=O)ccc-3cc2C(N)=O)cc1 [2-(4-methylanilino)-7-oxochromene-3-carboxamide]
2,12.3 µM,"O=C1CCCC(=O)C1=CNc1ccc(O)cc1 [2-[(4-hydroxyanilino)methylidene]cyclohexane-1,3-dione]"
3,9.99 µM,"N#CC1C(=N)C2=C(N3CCCCC3)CCCC2C1(C#N)C#N (stereo unspecified) [3-Amino-4-piperidin-1-yl-5,6,7,7a-tetrahydro-indene-1,1,2-tricarbonitrile]"
4,48.1 µM,"O=C1CCCC2=Nc3[nH]c(=S)[nH]c(=O)c3C(c3ccc(Br)cc3)C12 (stereo unspecified) [5-(4-bromophenyl)-2-thioxo-2,3,5,8,9,10-hexahydropyrimido[4,5-b]quinoline-4,6(1H,7H)-dione]"
5,5.19 µM,CN(C)c1ccc(N=CCC(=O)c2ccccc2)cc1 [(E)-3-[4-(dimethylamino)anilino]-1-phenyl-2-propen-1-one]
6,24.8 µM,Cc1cc(-c2nc3c4c5c(sc4nc(=O)n3[nH]2)CCC5)c(C)o1 [MLS000048351]
7,4.14 µM,Oc1ccc(-c2nc3c[nH]ccn-3c2=Nc2ccc3c(c2)OCCO3)cc1 [MLS000116162]
8,9.21 µM,"CN(C)c1ccc(NC(=O)c2cccc(-n3c(O)ccc3O)c2)cc1 [N-[4-(dimethylamino)phenyl]-3-(2,5-dioxopyrrolidin-1-yl)benzamide]"
9,5.53 µM,CC1(C)CC(=O)C(=CNc2ccc(O)cc2)C(=O)C1 [SMR000024722]
10,5.05 µM,COc1cc(-c2nc3c[nH]ccn-3c2=Nc2ccccc2)ccc1O [SMR000093145]

row,Structure (SMILES),IC50
1,"CCN(CC)CCN1C(=O)C(=O)C(C(=O)c2ccc(C)cc2)C1c1cccnc1 (stereo unspecified) [(4E)-1-[2-(diethylamino)ethyl]-4-[hydroxy-(4-methylphenyl)methylidene]-5-(3-pyridinyl)pyrrolidine-2,3-dione]",18.9 µM
